Data: US20240043470A1, “MACROCYCLIC COMPOUNDS AS PROTEASOME INHIBITORS” (CORNELL UNIVERSITY, priority 2017, published 2024)
Where two headings read alike, the source gives them in different places.

What was measured:
[1] = rcm bond
β5c of hu c-20S = β5c of hu c-20S (Homo sapiens (Human), UniProt P20618+P28074); experiment: IC50 determination against β5c of human constitutive proteasome (suc-LLVY-AMC hydrolysis); assay type: biochemical; conditions: 0.2 nM c-20S, 25 μM suc-LLVY-AMC;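 also: IC50 obtained by fitting initial reaction velocities to a dose-dependent inhibition model, with SDS present as proteasome activator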
β5i of hu i-20S = β5i of hu i-20S (Homo sapiens (Human), UniProt P20618+P28062); experiment: IC50 determination against β5i of human immunoproteasome (Ac-ANW-AMC hydrolysis); assay type: biochemical; conditions: β5i, 0.4 nM i-20S, 15 μM Ac-ANW-AMC;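 also: enzyme activity taken as the initial reaction velocity per well, with SDS added to activate the proteasome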
[2] = 16-membered ring
[3] = system: IL-6 in LPS-stimulated human macrophages; experiment: Inhibition of IL-6 in LPS-stimulated human macrophages (Q-PCR and ELISA); assay type: cell-based; conditions: LPS 50 ng/ml; 6 h gene expression (FIG. 1A), 24 h ELISA (FIG. 1B); compound added 15 minutes before LPS
Description: Monocytes were isolated from the blood of 2 healthy donors using CD14 magnetic beads and cultured with 20 ng/ml of MCSF for 24 hours to induce the differentiation into macrophages. 200,000 cells/wells in 96 wells plate were incubated with LPS (50 ng/ml) for 6 hours for RNA isolation and gene expression analysis (FIG. 1A) and 24 hours for ELISA (FIG. 1B). The proteasome inhibitor 4-13 used at the indicated concentration was added 15 minutes before adding LPS. At 6 hours, RNA were prepared using Qiagen RNA plus kit and cDNA were synthetized using the Thermofisher cDNA synthesis kit (FIG. 1A). Q-PCR was performed in duplicate and expression levels normalized to the level of the housekeeping gene ubiquitin. At 24 hours, supernatants were collected and IL-6 production quantified by ELISA (FIG. 1B).

[4] = amide bond, 16-membered ring, EDCI/HOBt/DIEA, DMF

Row | IC50 (β5c of hu c-20S) | IC50 (β5i of hu i-20S) | Compound | also measured
1 | – | – | CC(=O)N[C@H]1CC=CCOc2cccc(c2)C[C@@H](C(=O)NCC(F)(F)F)NC(=O)[C@H](CCc2ccccc2)NC1=O | ring closure, yield of all isomers ([1]; from C=CCOc1cccc(C[C@H](NC(=O)[C@H](CCc2ccccc2)NC(=O)[C@H](CC=C)NC(C)=O)C(=O)NCC(F)(F)F)c1, Grubbs 2nd generation catalyst, DCM, 24.9 mM, 40.0 °C, 4.0 h): 88.8%
2 | – | – | CC(=O)N[C@H]1Cc2cccc(c2)OCC=CC[C@@H](C(=O)NCC(F)(F)F)NC(=O)[C@H](CCc2ccccc2)NC1=O | ring closure, yield of all isomers ([1]; from C=CCOc1cccc(C[C@H](NC(C)=O)C(=O)N[C@@H](CCc2ccccc2)C(=O)N[C@@H](CC=C)C(=O)NCC(F)(F)F)c1, Grubbs 2nd generation catalyst, DCM, 5.33 mM, 40.0 °C, 4.0 h): 47%
3 | – | – | CC(C)(C)OC(=O)[C@@H]1CCCCCC=CCCCC(=O)N[C@@H](CC(=O)OCc2ccccc2)C(=O)N1 | ring closure, yield of all isomers ([1]; from C=CCCCCC[C@H](NC(=O)[C@H](CC(=O)OCc1ccccc1)NC(=O)CCCC=C)C(=O)OC(C)(C)C, Grubbs 2nd Generation catalyst, toluene, 1.27 mM, 40.0 °C, 16.0 h): 92.6%
4 | – | – | COC(=O)[C@@H]1CCCCCC=CCCC(Cc2ccccc2)C(=O)N[C@@H](CC(=O)OCc2ccccc2)C(=O)N1 (stereo partly shown) | ring closure, yield of all isomers ([1]; from C=CCCCCC[C@H](NC(=O)[C@H](CC(=O)OCc1ccccc1)NC(=O)C(CCC=C)Cc1ccccc1)C(=O)OC, Grubbs 2nd generation, 1,2-dichloroethane, 10.75 mM, 50.0 °C, 24.0 h): 53%
5 | – | – | O=C(NC1CCCC1)[C@@H]1CC=CCOc2cccc(c2)C[C@H](N2CCCC2=O)C(=O)N[C@@H](CCN2CCC(F)(F)CC2)C(=O)N1 | ring closure, yield of all isomers ([1]; from C=CCOc1cccc(C[C@@H](C(=O)N[C@@H](CCN2CCC(F)(F)CC2)C(=O)N[C@@H](CC=C)C(=O)NC2CCCC2)N2CCCC2=O)c1, Grubbs catalyst 2nd Generation, 1,2-dichloroethane, 5.07 mM, 60.0 °C, 12.0 h): 61.6%
6 | – | – | O=C1CCc2cccc(c2)OCC=CC[C@@H](C(=O)NC2CCCC2)NC(=O)[C@H](CC(=O)N2CCCC2C2CC2)N1 (stereo partly shown) | ring closure, yield of all isomers ([1]; from C=CCOc1cccc(CCC(=O)N[C@@H](CC(=O)N2CCCC2C2CC2)C(=O)N[C@@H](CC=C)C(=O)NC2CCCC2)c1, Grubbs 2nd generation, 1,2-dichloroethane, 4.09 mM, 50.0 °C, 12.0 h): 46.7%
7 | – | – | O=C1CCc2cccc(c2)OCC=CC[C@@H](C(=O)NC2CCCC2)NC(=O)[C@H](CCc2ccc(F)cc2)N1 | ring closure, yield of all isomers ([1]; from C=CCOc1cccc(CCC(=O)N[C@@H](CCc2ccc(F)cc2)C(=O)N[C@@H](CC=C)C(=O)NC2CCCC2)c1, Grubbs catalyst 2nd generation, 1,2-dichloroethane, […], 60.0 °C, 12.0 h): 65%
8 | 23.1 µM | > 10 µM | COC(=O)C1COCCOc2cccc(c2)CCC(=O)NC(CCc2ccccc2)C(=O)N1 [Compound 3-05, Methyl-(7S,10S)-9,12-dioxo-10-phenethyl-2,5-dioxa-8,11-diaza-1(1,3)-benzenacyclotetradecaphane-7-carboxylate] | –
9 | 31.9 µM | 82 µM | O=C(NCc1ncco1)[C@@H]1CCCCOc2cccc(c2)C[C@H](N2CCCC2=O)C(=O)N[C@@H](CCc2ccccc2)C(=O)N1 [Compound 3-16] | –
10 | 3.4 µM | 3.5 µM | O=C1CCc2cccc(c2)OCCCC[C@@H](C(=O)NCc2ccccc2F)NC(=O)[C@H](CCN2CCOCC2)N1 [Compound 3-26] | –
11 | 9.5 µM | > 100 µM | CN(C)[C@H]1Cc2cccc(c2)OCCCC[C@@H](C(=O)NC2CCCC2)NC(=O)[C@H](CCc2ccc(F)cc2)NC1=O [Compound 3-36] | –
12 | 38.6 µM | > 100 µM | O=C1CCc2cccc(c2)OCCCC[C@@H](C(=O)NC2CCCC2)NC(=O)[C@H](CCc2ccc(F)cc2)N1 [Compound 3-39, (7S,10S)—N-Cyclopentyl-10-(4-fluorophenethyl)-9,12-dioxo-2-oxa-8,11-diaza-1(1,3)-benzenacyclotetradecaphane-7-carboxamide] | –
13 | 56 µM | > 100 µM | O=C1CCc2cccc(c2)OCCCC[C@@H](C(=O)NCc2ccccc2F)NC(=O)[C@H](CCc2ccc(F)cc2)N1 [Compound 3-41] | –
14 | 75.5 µM | > 100 µM | O=C1CCc2cccc(c2)OCCCC[C@@H](C(=O)NC2CCCC2)NC(=O)[C@H](CCN2CCC(F)(F)CC2)N1 [Compound 3-43] | –
15 | 5.15 µM | > 100 µM | CN(Cc1ccccc1)C(=O)[C@@H]1CCCCOc2cccc(c2)C[C@H](N2CCCC2=O)C(=O)N[C@@H](CCc2ccc(F)cc2)C(=O)N1 [Compound 3-44] | –
16 | > 100 µM | 4.36 µM | O=C1CCC/C=C\CCCCC[C@@H](C(=O)NCc2cccc3ccccc23)NC(=O)[C@H](CC(=O)N2CCCC2)N1 [Compound 4-05, (2S,5S,11Z)—N-(1-Naphthylmethyl)-3,16-dioxo-2-(2-oxo-2-pyrrolidin-1-yl-ethyl)-1,4-diazacyclohexadec-11-ene-5-carboxamide] | ring closure, yield of all isomers ([1]; from C=CCCCCC[C@H](NC(=O)[C@H](CC(=O)N1CCCC1)NC(=O)CCCC=C)C(=O)NCc1cccc2ccccc12, Grubbs 2nd Generation catalyst, CH2Cl2, 1.11 mM, 50.0 °C, 20.0 h): 36%; ring closure, isolated yield ([2]; from (hex-5-enoyl)-Asp(pyrrolidin-1-yl amide)-((2S)-2-aminonon-8-enoic acid)-NHCH2(1-naphthyl)?, rcm bond, Grubbs II, CH2Cl2, 1.11 mM, 50.0 °C): 36%
17 | > 100 µM | 33.4 µM | O=C1CCCCCCCCCC[C@@H](C(=O)NCc2cccc3ccccc23)NC(=O)[C@H](CC(=O)N2CCC[C@@H]2c2ccccc2)N1 [Compound 4-08] | –
18 | 0.274 µM | 0.018 µM | O=C1CCCCCCCCCC[C@@H](C(=O)NCc2ccccc2F)NC(=O)[C@H](CC(=O)N2CCCC2C2CC2)N1 (stereo partly shown) [Compound 4-13] | Inhibition of IL-6 in LPS-stimulated human macrophages [3]: inhibition of IL-6
19 | 0.88 µM | 0.11 µM | O=C1CCCCCCCCCC[C@@H](C(=O)NCc2ccccc2F)NC(=O)[C@H](CC(=O)N2CCCC2C2COC2)N1 (stereo partly shown) [Compound 4-17] | –
20 | – | – | (2-benzylhex-5-enoyl)-Asp(OBn)-(2-aminonon-8-enoic acid)-OMe? | ring closure, isolated yield ([2]; the molecule shown is the open-chain precursor, rcm bond, Grubbs II, DCE, […], 50.0 °C): 53%
21 | – | – | (5S,8S,11S)-6-Methyl-7,10-dioxo-11-(2-oxopyrrolidin-1-yl)-8-phenethyl-N-(2,2,2-trifluoroethyl)-2-oxa-6,9-diaza-1,3(1,3)-dibenzenacyclododecaphane-5-carboxamide | ring closure, yield after HPLC ([4]; 18.3 mM, 25.0 °C): 26%
22 | – | – | (5S,8S,11S)-7,10-Dioxo-11-(2-oxopyrrolidin-1-yl)-8-(2-(piperidin-1-yl)ethyl)-N-(2,2,2-trifluoroethyl)-2-oxa-6,9-diaza-1,3(1,3)-dibenzenacyclododecaphane-5-carboxamide | ring closure, yield after HPLC ([4]; 15.8 mM, 20.0 °C): 24.2%
23 | – | – | (5S,8S,11S)-11-Acetamido-7,10-dioxo-8-propyl-N-(2,2,2-trifluoroethyl)-2-oxa-6,9-diaza-1,3(1,3)-dibenzenacyclododecaphane-5-carboxamide | ring closure, isolated yield ([2]; amide bond, HATU/DIEA, DMF, […], 0.0 °C): 18.7%
24 | – | – | (7S,10S,13S,E)-13-Acetamido-9,12-dioxo-10-phenethyl-N-(2,2,2-trifluoroethyl)-2-oxa-8,11-diaza-1(1,3)-benzenacyclotetradecaphan-4-ene-7-carboxamide | ring closure, isolated yield ([2]; rcm bond, Grubbs II, DCM, 5.3 mM, 40.0 °C): 47%
25 | – | – | (hex-5-enoyl)-Asp(OBn)-((2S)-2-aminonon-8-enoic acid)-OtBu? | ring closure, isolated yield ([2]; the molecule shown is the open-chain precursor, rcm bond, Grubbs II, toluene, 1.27 mM, 40.0 °C): 92.6%
26 | – | – | Ac-Gly(allyl)-hPhe-Phe(3-OAllyl)-NHCH2CF3? | ring closure, isolated yield ([2]; the molecule shown is the open-chain precursor, rcm bond, Grubbs II, DCM, 24.9 mM, 40.0 °C): 88.8%

Row | Compound | IC50 (β5c of hu c-20S) | IC50 (β5i of hu i-20S) | also measured
27 | O=C1CCCCCCCCCC[C@@H](C(=O)NCc2cccc3ccccc23)NC(=O)[C@H](CC(=O)N2CCCC2)N1 [Compound 4-06, (2S,5S)—N-(1-Naphthylmethyl)-3,16-dioxo-2-(2-oxo-2-pyrrolidin-1-yl-ethyl)-1,4-diazacyclohexadecane-5-carboxamide] | > 100 µM | 3.52 µM | –
28 | O=C1CCCCCCCCC[C@@H](C(=O)NCc2cccc3ccccc23)NC(=O)[C@H](CC(=O)N2CCCC2)N1 [Compound 4-07] | > 100 µM | 61.3 µM | –
29 | O=C1CCCCCCCCOC[C@@H](C(=O)NCc2cccc3ccccc23)NC(=O)[C@H](CC(=O)N2CCCC2)N1 [Compound 4-15, (3S,6S)—N-(Naphthalen-1-ylmethyl)-5,8-dioxo-6-(2-oxo-2-(pyrrolidin-1-yl)ethyl)-1-oxa-4,7-diazacyclohexadecane-3-carboxamide] | 3.67 µM | 4.71 µM | –
30 | O=C1CCCCCCCCOC[C@@H](C(=O)NCc2ccccc2F)NC(=O)[C@H](CC(=O)N2CCC[C@@H]2c2ccccc2)N1 [Compound 4-16] | 4.12 µM | 51.3 µM | –
